Patent US11524966B1 (Valo Early Discovery, Inc., priority 2017, dated 2022)

Biological target: T1, USP28 (His-tagged USP28-FL-mammalian) (Homo sapiens, UniProt Q96RU2)
T1 construct: Expression of USP28 (1-1077)-TEV-6*His (pTT5 vector); made in house; host or cells: Expi293f cells (pTT5 vector)
T1 sequence (Q96RU2 1-1077): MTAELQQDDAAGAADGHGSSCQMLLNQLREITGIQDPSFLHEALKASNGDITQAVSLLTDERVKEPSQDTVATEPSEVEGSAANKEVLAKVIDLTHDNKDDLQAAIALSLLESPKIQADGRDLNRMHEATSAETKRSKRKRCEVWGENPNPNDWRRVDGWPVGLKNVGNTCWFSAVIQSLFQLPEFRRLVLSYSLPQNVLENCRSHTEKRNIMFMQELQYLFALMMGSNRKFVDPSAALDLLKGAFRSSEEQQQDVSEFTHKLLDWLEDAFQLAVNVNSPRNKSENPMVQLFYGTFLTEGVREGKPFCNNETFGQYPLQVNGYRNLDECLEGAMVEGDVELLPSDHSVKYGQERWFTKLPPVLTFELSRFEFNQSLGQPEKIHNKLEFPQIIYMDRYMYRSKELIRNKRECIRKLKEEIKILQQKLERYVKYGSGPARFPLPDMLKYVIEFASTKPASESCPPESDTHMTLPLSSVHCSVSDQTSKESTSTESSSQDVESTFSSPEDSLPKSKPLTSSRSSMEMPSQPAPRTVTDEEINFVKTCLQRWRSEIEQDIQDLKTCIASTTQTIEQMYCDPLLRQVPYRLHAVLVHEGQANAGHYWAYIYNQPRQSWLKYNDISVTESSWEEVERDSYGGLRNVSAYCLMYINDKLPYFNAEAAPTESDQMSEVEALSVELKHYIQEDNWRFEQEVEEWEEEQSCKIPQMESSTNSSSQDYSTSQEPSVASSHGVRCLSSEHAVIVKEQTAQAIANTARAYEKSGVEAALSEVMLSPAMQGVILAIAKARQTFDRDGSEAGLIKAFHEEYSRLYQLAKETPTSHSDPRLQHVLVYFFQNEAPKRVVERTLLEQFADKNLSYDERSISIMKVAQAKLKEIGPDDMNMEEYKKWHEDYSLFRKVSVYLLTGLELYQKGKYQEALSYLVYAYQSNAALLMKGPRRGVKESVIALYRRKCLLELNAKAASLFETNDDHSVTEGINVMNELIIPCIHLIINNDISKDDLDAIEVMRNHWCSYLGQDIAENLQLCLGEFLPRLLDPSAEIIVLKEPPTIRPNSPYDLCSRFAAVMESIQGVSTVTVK
Experiment: Ubiquitin-Rhodamine 110 Assay for USP28 Activity, Example A-1(a)
Type: biochemical
Details: Ubiquitin-Rhodamine 110 assay, Example A-1(a); read-out: USP28 A-1(a) IC50 range
Method in brief: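 Full-length His-tagged human USP28 (1-1077, Expi293f-expressed), […], with 25 nM Ub-Rh110 (<<Km) in pH 8.0 Tris buffer with BME, BGG, Triton X-100. 10-point dilutions (25 μM-1.3 nM), 45 min at room temperature, citric acid stop, fluorescence 485/535 nm; IC50 by 4-parameter fit.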

Compound | IC50
Cc1ccc2c(N)c(C(=O)N[C@H]3COc4cc(N5CC6CCC[C@@]6(N)C5)ccc4C3)sc2n1 (stereo partly drawn) [Example 248, N-[(3R)-7-[(3aS)-3a-amino-octahydrocyclopenta[c]pyrrol-2-yl]-3,4-dihydro-2H-1-benzopyran-3-yl]-3-amino-6-methylthieno[2,3-b]pyridine-2-carboxamide] | 1 to 50 nM
Cc1ccc2c(N)c(C(=O)N[C@H]3COc4cc(N5CC6CCC[C@]6(N)C5)ccc4C3)sc2n1 (stereo partly drawn) [Example 249, N-[(3R)-7-[(3aR)-3a-amino-octahydrocyclopenta[c]pyrrol-2-yl]-3,4-dihydro-2H-1-benzopyran-3-yl]-3-amino-6-methylthieno[2,3-b]pyridine-2-carboxamide] | 1 to 50 nM
COC[C@@H]1CN(c2cc(F)c3c(c2)OC[C@H](NC(=O)c2sc4nc(C)ccc4c2N)C3)C[C@@H]1N [Example 250, 3-amino-N-[(3R)-7-[(3R,4R)-3-amino-4-(methoxymethyl)pyrrolidin-1-yl]-5-fluoro-3,4-dihydro-2H-1-benzopyran-3-yl]-6-methylthieno[2,3-b]pyridine-2-carboxamide] | 1 to 50 nM
COC[C@H]1CN(c2cc(F)c3c(c2)OC[C@H](NC(=O)c2sc4nc(C)ccc4c2N)C3)C[C@H]1N [Example 251, 3-amino-N-[(3R)-7-[(3S,4S)-3-amino-4-(methoxymethyl)pyrrolidin-1-yl]-5-fluoro-3,4-dihydro-2H-1-benzopyran-3-yl]-6-methylthieno[2,3-b]pyridine-2-carboxamide] | 1 to 50 nM
COC[C@@H]1CN(c2ccc3c(c2)CC[C@H](NC(=O)c2sc4nc(C)ccc4c2N)C3)C[C@@H]1N [Example 252, 3-amino-N-[(2S)-6-[(3R,4R)-3-amino-4-(methoxymethyl)pyrrolidin-1-yl]-1,2,3,4-tetrahydronaphthalen-2-yl]-6-methylthieno[2,3-b]pyridine-2-carboxamide] | 50 to 200 nM
COC[C@H]1CN(c2ccc3c(c2)CC[C@H](NC(=O)c2sc4nc(C)ccc4c2N)C3)C[C@H]1N [Example 253, 3-amino-N-[(2S)-6-[(3S,4S)-3-amino-4-(methoxymethyl)pyrrolidin-1-yl]-1,2,3,4-tetrahydronaphthalen-2-yl]-6-methylthieno[2,3-b]pyridine-2-carboxamide] | 1 to 50 nM
CCO[C@@H]1CN(c2ccc3c(n2)CC[C@H](NC(=O)c2sc4nc(C)ccc4c2N)C3)C[C@@H]1N [Example 254, 3-amino-N-[(6S)-2-[(3S,4R)-3-amino-4-ethoxypyrrolidin-1-yl]-5,6,7,8-tetrahydroquinolin-6-yl]-6-methylthieno[2,3-b]pyridine-2-carboxamide] | 50 to 200 nM
CCO[C@H]1CN(c2ccc3c(n2)CC[C@H](NC(=O)c2sc4nc(C)ccc4c2N)C3)C[C@H]1N [Example 255, 3-amino-N-[(6S)-2-[(3R,4S)-3-amino-4-ethoxypyrrolidin-1-yl]-5,6,7,8-tetrahydroquinolin-6-yl]-6-methylthieno[2,3-b]pyridine-2-carboxamide] | 50 to 200 nM
Cc1ccc2c(N)c(C(=O)N[C@H]3COc4cc(N5C[C@H](N)C(F)(F)C5)ccc4C3)sc2n1 [Example 256, 3-amino-N-[(3R)-7-[(4S)-4-amino-3,3-difluoropyrrolidin-1-yl]-3,4-dihydro-2H-1-benzopyran-3-yl]-6-methylthieno[2,3-b]pyridine-2-carboxamide] | 1 to 50 nM
Cc1ccc2c(N)c(C(=O)N[C@H]3COc4cc(N5C[C@@H](N)C(F)(F)C5)ccc4C3)sc2n1 [Example 257, 3-amino-N-[(3R)-7-[(4R)-4-amino-3,3-difluoropyrrolidin-1-yl]-3,4-dihydro-2H-1-benzopyran-3-yl]-6-methylthieno[2,3-b]pyridine-2-carboxamide] | 1 to 50 nM
Cc1ccc2c(N)c(C(=O)N[C@H]3COc4cc(N5C[C@H](N)C6(COC6)C5)ccc4C3)sc2n1 [Example 258, 3-amino-N-[(3R)-7-[(8R)-8-amino-2-oxa-6-azaspiro[3.4]octan-6-yl]-3,4-dihydro-2H-1-benzopyran-3-yl]-6-methylthieno[2,3-b]pyridine-2-carboxamide] | 1 to 50 nM
Cc1ccc2c(N)c(C(=O)N[C@H]3COc4cc(N5C[C@@H](N)C6(COC6)C5)ccc4C3)sc2n1 [Example 259, 3-amino-N-[(3R)-7-[(8S)-8-amino-2-oxa-6-azaspiro[3.4]octan-6-yl]-3,4-dihydro-2H-1-benzopyran-3-yl]-6-methylthieno[2,3-b]pyridine-2-carboxamide] | 1 to 50 nM
COC[C@@H]1C[C@@H](N)CN1c1ccc2c(c1)OC[C@H](NC(=O)c1sc3nc(C)ccc3c1N)C2 [Example 260, 3-amino-N-[(3R)-7-[(25,4R)-4-amino-2-(methoxymethyl)pyrrolidin-1-yl]-3,4-dihydro-2H-1-benzopyran-3-yl]-6-methylthieno[2,3-b]pyridine-2-carboxamide] | 1 to 50 nM
